{"source": "patent US8263593B2", "about": "“Therapeutic compounds” (Allergan, Inc., priority 2008, dated 2012)", "test_system": "lashes and adjacent hairs", "experiment": "Observation of lashes and adjacent hairs in glaucoma patients treated in one eye", "format": "in vivo", "source_text": "In the course of treating patients having glaucoma, treatment may only be appropriate in one eye. […] The lash appearance on the lids of the treated eyes would have appeared quite attractive if it represented a bilateral phenomenon. As a result of its asymmetric nature, the long lashes on one side could be construed as disturbing from a cosmetic standpoint. A systemic examination was preformed as a result of the asymmetric phenomenon. It soon became apparent that this altered appearance was not an isolated finding. […] Definite differences could be identified to varying degrees in the lashes and adjacent hairs of all patients who were taking the drug on a unilateral basis for longer than 6 months.\nThe changes in the lashes were apparent on gross inspection in several patients once attention was focused on the issue. In those with light colored hair and lashes, the differences were only seen easily with the aid of the high magnification and lighting capabilities of the slit lamp biomicroscope. In the course of glaucoma follow-up examination, attention is generally immediately focused on the eye itself. As a result of the high power magnification needed only one eye is seen at a time and the eye is seen at a high enough power that the lashes are not in focus. […]", "data": [{"molecule": "CCNC(=O)CCC/C=C\\C[C@@H]1[C@@H](/C=C/[C@@H](O)CCc2ccccc2)[C@H](O)C[C@@H]1O", "note": "[bimatoprost]", "values": [{"measurement": "lash appearance in the treated eye versus the non-treated eye", "setting": "glaucoma patient treated in one eye only", "value": "longer, thicker, and fuller"}, {"measurement": "hair growth in treated versus control areas, multiple parameters of hair appearance", "setting": "many subjects, unilateral treatment", "value": "hair growth is stimulated"}]}]}
